Reference: US20100087413A1, “Prevention and treatment of inflammation-induced and/or immune-mediated bone loss” (priority 2003, published 2010)
Marks after values point to notes of the source that are not given here.

These compounds were tested against T1, human 11β-HSD1 (Homo sapiens, UniProt P28845) (assay: 11β-HSD1 reductase activity (conversion of radiolabelled cortisone to cortisol) in lysates of stably transfected HEK-293 cells). Conditions: 20 μM compound, 100 nM cortisone substrate, HEK-293 lysate.
T1 construct: expressed in transfected cells; host or cells: HEK-293 cells, stably transfected; cell lysate
Format: biochemical
Experimental: (§1) Cells were grown in 10 cm dishes to 80% confluence and incubated for 16 h in steroid-free medium (charcoal-treated fetal calf serum (FCS) from HyClone, Logan, Utah). Cells were rinsed once with phosphate-buffered saline (PBS), detached and centrifuged for 3 min at 150×g. The supernatant was removed and the cell pellet quick-frozen in a dry-ice ethanol bath. At the day of experiment, cell pellets were resuspended in buffer TS2 (100 mM NaCl, 1 mM EGTA, 1 mM EDTA, 1 mM MgCl2, 250 mM sucrose, 20 mM Tris-HCl, pH 7.4), sonicated and activities determined immediately. The rate of conversion of cortisol to cortisone or the reverse reaction was determined in 96-well optical PCR reaction plates (Applied Biosystems, Foster City, Calif.) in a final volume of 22 μl, and the tubes were capped during the reaction to avoid evaporation.
Reactions were initiated simultaneously by adding 10 μl of cell lysate and 12 μl of TS2 buffer containing the appropriate concentration of the inhibitory compound to be tested, NADPH, 30 nCi of [1,2,6,7-^3H]-cortisone and unlabeled cortisone, whereby final concentrations were 400 μM NADPH and 100 nM cortisone. Activities were determined immediately after cell disruption by measuring the conversion of radiolabeled cortisone to cortisol for 10 min.
(§2) Enzyme kinetics were analyzed by non-linear regression using Data Analysis Toolbox (MDL Information Systems Inc.) assuming first-order rate kinetics.
(§3) Assay with 20 μM of the corresponding compound in the reaction mixture, added simultaneously with the substrate:
(§4) Determination of IC50 values, using 7 different inhibitor concentrations at factor 2 intervals: […]

T1 sequence (P28845 whole entry): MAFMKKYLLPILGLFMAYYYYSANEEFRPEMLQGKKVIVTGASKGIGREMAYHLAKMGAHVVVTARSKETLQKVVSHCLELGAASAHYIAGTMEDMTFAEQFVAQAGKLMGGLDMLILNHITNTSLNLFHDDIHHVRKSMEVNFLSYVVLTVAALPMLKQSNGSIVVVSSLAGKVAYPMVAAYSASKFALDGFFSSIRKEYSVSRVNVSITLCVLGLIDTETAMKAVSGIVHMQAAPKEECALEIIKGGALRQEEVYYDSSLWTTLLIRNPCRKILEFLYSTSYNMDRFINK

Structure (SMILES) | 11β-HSD1 % of control
CC(=O)OC1CC[C@]2(C)C3=C(C(=O)C[C@H]2C1(C)C)[C@]1(C)CCC(C(C)CCC(=O)O)[C@@]1(C)CC3=O (some centres unmarked) [BNW16] | 2.708* % of control
CCOc1ccc(C2c3cc(OCC)c(OCC)cc3CC(=O)N2c2ccc(C(=O)O)cc2)cc1OCC (centres unmarked) [BNW17] | 88.22 % of control
CSc1nc2cc(C)c(C)cc2n1C1OC(CO)C(O)C1O (centres unmarked) [BNW18] | 92.03 % of control
COCCN1C(=O)C(O)=C(C(=O)c2ccc(OC)c(C)c2)C1c1ccc(C)cc1 (centres unmarked) [BNW20] | 46.83 % of control
COc1ccc(C(=O)C2=C(O)C(=O)N(CCCn3ccnc3)C2c2ccccc2)cc1Cl (centres unmarked) [BNW21] | 48.94 % of control
CCOc1ccc(C2C(C(=O)c3ccc(Cl)cc3)=C(O)C(=O)N2CCCn2ccnc2)cc1OCC (centres unmarked) [BNW22] | 41.32 % of control
COc1cccc(/C=N/NC(=O)CSCc2ccccc2C)c1OC [BNW23] | 85.07 % of control
C[C@H]1CC[C@]2(C)[C@H]3C(=O)C=C4[C@@H]5C[C@@](C)(C(=O)O)CC[C@]5(C)CC[C@@]4(C)[C@]3(C)CC[C@H]2C1(C)C [BNW25] | 2.884* % of control
COc1ccc(CNC(=O)C2CCC(=O)N2C2CCCC2)cc1OC (centres unmarked) [BNW26] | 94.07 % of control
COc1cc2c(cc1OC)C(COc1ccc([N+](=O)[O-])cc1)N(C(=O)c1ccc(Cl)c([N+](=O)[O-])c1)CC2 (centres unmarked) [BNW27] | 78.64 % of control
COc1cc(/C=N/NC(=O)CSc2nc3ccccc3n2Cc2ccc(C)cc2)cc(OC)c1OC(C)=O [BNW28] | 76.73 % of control
CCN(CC)S(=O)(=O)c1ccc(OC)c(-c2nnc(-c3cc(S(=O)(=O)N(CC)CC)ccc3OC)o2)c1 [BNW29] | 75.29 % of control
CCC(Sc1nnc(-c2ccc(OC)c(OC)c2)c(-c2ccc(OC)c(OC)c2)n1)C(=O)N(CC)CC (centres unmarked) [BNW30] | 48.36 % of control

Same assay, conditions: Mittelwert (mean) of determinations 1-3; read-out: IC 50 11β-HSD1, Mittelwert

Structure (SMILES) | IC50 [µM]
CC(=O)OC1CC[C@]2(C)C3=C(C(=O)C[C@H]2C1(C)C)[C@]1(C)CCC(C(C)CCC(=O)O)[C@@]1(C)CC3=O (some centres unmarked) [BNW16] | 0.144
C[C@H]1CC[C@]2(C)[C@H]3C(=O)C=C4[C@@H]5C[C@@](C)(C(=O)O)CC[C@]5(C)CC[C@@]4(C)[C@]3(C)CC[C@H]2C1(C)C [BNW25] | 0.172

Same assay, conditions: determination 1; 7 inhibitor concentrations at factor 2 intervals; read-out: IC 50 11β-HSD1, determination 1

Structure (SMILES) | IC50 [µM]
C[C@H]1CC[C@]2(C)[C@H]3C(=O)C=C4[C@@H]5C[C@@](C)(C(=O)O)CC[C@]5(C)CC[C@@]4(C)[C@]3(C)CC[C@H]2C1(C)C [BNW25] | 0.147

Same assay, conditions: determination 2; 7 inhibitor concentrations at factor 2 intervals; read-out: IC 50 11β-HSD1, determination 2

Structure (SMILES) | IC50 [µM]
C[C@H]1CC[C@]2(C)[C@H]3C(=O)C=C4[C@@H]5C[C@@](C)(C(=O)O)CC[C@]5(C)CC[C@@]4(C)[C@]3(C)CC[C@H]2C1(C)C [BNW25] | 0.206

Same assay, conditions: determination 3; 7 inhibitor concentrations at factor 2 intervals; read-out: IC 50 11β-HSD1, determination 3

Structure (SMILES) | IC50 [µM]
C[C@H]1CC[C@]2(C)[C@H]3C(=O)C=C4[C@@H]5C[C@@](C)(C(=O)O)CC[C@]5(C)CC[C@@]4(C)[C@]3(C)CC[C@H]2C1(C)C [BNW25] | 0.161

Each compound was assayed against T2, human 11β-HSD2 (Homo sapiens, UniProt P80365) (assay: 11β-HSD2 oxidase activity (conversion of radiolabelled cortisol to cortisone) in lysates of stably transfected HEK-293 cells). Conditions: 20 μM compound, 25 nM cortisol substrate, HEK-293 lysate.
T2 construct: expressed in transfected cells; host or cells: HEK-293 cells, stably transfected; cell lysate
T2 sequence (P80365 1-405): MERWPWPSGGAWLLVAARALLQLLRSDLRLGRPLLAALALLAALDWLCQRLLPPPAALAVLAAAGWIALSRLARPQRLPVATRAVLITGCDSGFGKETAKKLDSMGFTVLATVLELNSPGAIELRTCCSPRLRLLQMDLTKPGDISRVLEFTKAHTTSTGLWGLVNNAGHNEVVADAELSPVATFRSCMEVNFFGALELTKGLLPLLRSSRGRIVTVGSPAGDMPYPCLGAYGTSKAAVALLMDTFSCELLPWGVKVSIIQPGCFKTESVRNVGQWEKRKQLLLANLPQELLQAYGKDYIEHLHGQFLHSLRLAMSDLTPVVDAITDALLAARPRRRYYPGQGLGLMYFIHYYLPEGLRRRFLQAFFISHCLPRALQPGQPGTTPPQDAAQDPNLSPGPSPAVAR
Format: biochemical
Experimental: as §1
Reactions were initiated by simultaneously adding 10 μl of cell lysate and 12 μl of TS2 buffer containing the appropriate concentration of the inhibitory compound to be tested, NAD^+, 30 nCi of [1,2,6,7-^3H]-cortisol and unlabeled cortisol. […] Stock solutions of the inhibitors in methanol or DMSO were diluted in TS2 buffer to yield the appropriate concentrations, whereby the concentration of methanol or DMSO in the reactions were kept below 0.1%. Control reactions with or without 0.1% of the solvent were performed. Incubation was at 37° C. for 10 min with shaking, reactions were terminated by adding 10 μl of stop solution containing 2 mM of unlabeled cortisol and cortisone dissolved in methanol. The conversion of radiolabeled cortisol was determined by separation of cortisol and cortisone using TLC and a solvent system of 9:1 (v/v) chloroform:methanol, followed by scintillation counting.
as §2, §3, §4

Structure (SMILES) | 11β-HSD2 % of control
CC(=O)OC1CC[C@]2(C)C3=C(C(=O)C[C@H]2C1(C)C)[C@]1(C)CCC(C(C)CCC(=O)O)[C@@]1(C)CC3=O (some centres unmarked) [BNW16] | 27.37 % of control
CCOc1ccc(C2c3cc(OCC)c(OCC)cc3CC(=O)N2c2ccc(C(=O)O)cc2)cc1OCC (centres unmarked) [BNW17] | 120.1 % of control
CSc1nc2cc(C)c(C)cc2n1C1OC(CO)C(O)C1O (centres unmarked) [BNW18] | 82.81 % of control
COCCN1C(=O)C(O)=C(C(=O)c2ccc(OC)c(C)c2)C1c1ccc(C)cc1 (centres unmarked) [BNW20] | 120.7 % of control
COc1ccc(C(=O)C2=C(O)C(=O)N(CCCn3ccnc3)C2c2ccccc2)cc1Cl (centres unmarked) [BNW21] | 121.6 % of control
CCOc1ccc(C2C(C(=O)c3ccc(Cl)cc3)=C(O)C(=O)N2CCCn2ccnc2)cc1OCC (centres unmarked) [BNW22] | 104.3 % of control
COc1cccc(/C=N/NC(=O)CSCc2ccccc2C)c1OC [BNW23] | 132.6608 % of control
C[C@H]1CC[C@]2(C)[C@H]3C(=O)C=C4[C@@H]5C[C@@](C)(C(=O)O)CC[C@]5(C)CC[C@@]4(C)[C@]3(C)CC[C@H]2C1(C)C [BNW25] | 13.93* % of control
COc1ccc(CNC(=O)C2CCC(=O)N2C2CCCC2)cc1OC (centres unmarked) [BNW26] | 136.8 % of control
COc1cc2c(cc1OC)C(COc1ccc([N+](=O)[O-])cc1)N(C(=O)c1ccc(Cl)c([N+](=O)[O-])c1)CC2 (centres unmarked) [BNW27] | 126.4 % of control
COc1cc(/C=N/NC(=O)CSc2nc3ccccc3n2Cc2ccc(C)cc2)cc(OC)c1OC(C)=O [BNW28] | 137 % of control
CCN(CC)S(=O)(=O)c1ccc(OC)c(-c2nnc(-c3cc(S(=O)(=O)N(CC)CC)ccc3OC)o2)c1 [BNW29] | 115.4 % of control
CCC(Sc1nnc(-c2ccc(OC)c(OC)c2)c(-c2ccc(OC)c(OC)c2)n1)C(=O)N(CC)CC (centres unmarked) [BNW30] | 140 % of control

Same assay, conditions: Mittelwert (mean) of the determinations; read-out: IC 50 11β-HSD2, Mittelwert

Structure (SMILES) | IC50 [µM]
CC(=O)OC1CC[C@]2(C)C3=C(C(=O)C[C@H]2C1(C)C)[C@]1(C)CCC(C(C)CCC(=O)O)[C@@]1(C)CC3=O (some centres unmarked) [BNW16] | 3.95
C[C@H]1CC[C@]2(C)[C@H]3C(=O)C=C4[C@@H]5C[C@@](C)(C(=O)O)CC[C@]5(C)CC[C@@]4(C)[C@]3(C)CC[C@H]2C1(C)C [BNW25] | 0.0597

Same assay, conditions: determination 1; 7 inhibitor concentrations at factor 2 intervals

Structure (SMILES) | IC 50 11β-HSD2, determination 1
CC(=O)OC1CC[C@]2(C)C3=C(C(=O)C[C@H]2C1(C)C)[C@]1(C)CCC(C(C)CCC(=O)O)[C@@]1(C)CC3=O (some centres unmarked) [BNW16] | out of range
C[C@H]1CC[C@]2(C)[C@H]3C(=O)C=C4[C@@H]5C[C@@](C)(C(=O)O)CC[C@]5(C)CC[C@@]4(C)[C@]3(C)CC[C@H]2C1(C)C [BNW25] | out of range

Same assay, conditions: determination 2; 7 inhibitor concentrations at factor 2 intervals; read-out: IC 50 11β-HSD2, determination 2

Structure (SMILES) | IC50 [µM]
C[C@H]1CC[C@]2(C)[C@H]3C(=O)C=C4[C@@H]5C[C@@](C)(C(=O)O)CC[C@]5(C)CC[C@@]4(C)[C@]3(C)CC[C@H]2C1(C)C [BNW25] | 0.0546

Same assay, conditions: determination 3; 7 inhibitor concentrations at factor 2 intervals; read-out: IC 50 11β-HSD2, determination 3

Structure (SMILES) | IC50 [µM]
C[C@H]1CC[C@]2(C)[C@H]3C(=O)C=C4[C@@H]5C[C@@](C)(C(=O)O)CC[C@]5(C)CC[C@@]4(C)[C@]3(C)CC[C@H]2C1(C)C [BNW25] | 0.0649

Each compound was assayed on Adjuvant-Induced Arthritis (AIA) (assay: Adjuvant-induced arthritis (AIA), histology of hind joint sections from arthritic rats). Conditions: rat AIA, injected i.d. early (day0, day2, day4) or late (day9, day11, day13).
Format: in vivo
Source text: An intradermal injection, at the base of the tail, with heat killed Mycobaterium tuberculosum in incomplete Feund's Adjuvans results in destructive arthritis within 14 days in susceptible DA or LEW inbred rat strains. AIA can also be induced with cell walls from other bacterial types in IFA, although the arthritogenicity varies. Increased synthesis of tumor necrosis factor a (TNF-a), interleukin 1 (IL-1) and IL-6 is detected as early as day four after adjuvant injection. The disease progresses rapidly over several weeks in what appears clinically to be a monophasic process.
BX-1 early: BX-1 injected i.d. at the time of disease induction (day0) and day2, day4 BX-1 late: BX-1 injected i.d. at first signs of arthritis, day9, day11, day13.
Samples are from both left and right hind limb of three rats per group of a representative experiment
Rat ankle slides were histologically evaluated according to five criteria (blind evaluation by DL Boyle et al., University of California in San Diego, (J. Immunol., January 2002; 168: 51-56.): • 1. Extra-articular inflammation • 2. Bone marrow inflammation (BM) • 3. Synovial inflammation • 4. Cartilage/bone erosion • 5. Proteoglycan damage

Structure (SMILES) | influence on the pathology of arthritis (T-cell and dendritic cell activation, systemic inflammation, bone marrow infiltration)
CC1(C)[C@@H](O)CC[C@]2(C)[C@H]3C(=O)C=C4[C@@H]5C[C@@](C)(C(=O)O)CC[C@]5(C)CC[C@@]4(C)[C@]3(C)CC[C@@H]12 [BX-1, 18-β-glycyrrhetinic acid] | positively influence all arms of the pathology of arthritis
